Experiments:
Format in all cases: in vivo
[1] = system: Southern Armyworm (Spodoptera eridania, 2nd instar larvae); experiment: Southern Armyworm foliar spray test on lima bean plants (B.1); details: 96 h, assessed 4 days after treatment, read-out: mortality in comparison with untreated controls
Protocol: B.1 Southern Armyworm (Spodoptera eridania, 2nd instar larvae)
The active compounds were formulated in cyclohexanone as a 10,0000 ppm solution supplied in 1.3 ml ABgene® tubes. These tubes were inserted into an automated electrostatic sprayer equipped with an atomizing nozzle and they served as stock solutions for which lower dilutions were made in 50% acetone: 50% water (v/v). A nonionic surfactant (Kinetic®) was included in the solution at a volume of 0.01% (v/v). Lima bean plants (variety Sieva) were grown 2 plants to a pot and selected for treatment at the 1st true leaf stage. Test solutions were sprayed onto the foliage by an automated electrostatic plant sprayer equipped with an atomizing spray nozzle. The plants were dried in the sprayer fume hood and then removed from the sprayer. Each pot was placed into perforated plastic bags with a zip closure. Ten to 11 armyworm larvae were placed into the bag and the bags zipped closed. Test plants were maintained in a growth room at 25° C. and 20-40% relative humidity for 4 days, avoiding direct exposure to fluorescent light (24 hour photoperiod) to prevent trapping of heat inside the bags. Mortality and reduced feeding were assessed 4 days after treatment, compared to untreated control plants.

[2] = system: Tobacco budworm (Heliothis virescens); experiment: Tobacco budworm insect diet microtiter test (B.10); details: 120 h, test concentration 800 ppm, egg and larval mortality on insect diet, 5 days
Protocol: B.10 Tobacco budworm (Heliothis virescens)
(§1) For evaluating control of tobacco budworm (Heliothis virescens) the test unit consists of 96-well-microtiter plates containing an insect diet and 15-25 H. virescens eggs. The compounds were formulated using a solution containing 75% v/v water and 25% v/v DMSO. Different concentrations of formulated compounds were sprayed onto the insect diet at 10 μl, using a custom built micro atomizer, at two replications. After application, microtiter plates were incubated at about 28±1° C. and about 80±5% relative humidity for 5 days. Egg and larval mortality was then visually assessed.

[3] = system: Diamondback moth (Plutella xylostella); experiment: Diamondback moth leaf-dip test on Chinese cabbage (B.4); details: test concentration 500 ppm, dipped Chinese cabbage leaves, mortality recorded 24, 72 and 120 hours after treatment, read-out: mortality in comparison with untreated controls
Protocol: B.4 Diamondback moth (Plutella xylostella)
The active compound was dissolved at the desired concentration in a mixture of 1:1 (vol:vol) distilled water:acetone. The test solution was prepared at the day of use.
The activity against Plutella xylostella can be tested by the following experiments:
Leaves of Chinese cabbage were dipped in test solution and air-dried. Treated leaves were placed in petri dished lined with moist filter paper. Mortality was recorded 24, 72, and 120 hours after treatment.

[4] = system: Mediterranean fruitfly (Ceratitis capitata); experiment: Mediterranean fruitfly insect diet microtiter test (B.9); details: 120 h, test concentration 800 ppm, egg and larval mortality on insect diet, 5 days
Protocol: B. 9 Mediterranean fruitfly (Ceratitis capitata)
as §1, with “Mediterranean fruitfly (Ceratitis capitata)” for “tobacco budworm (Heliothis virescens)”, “consisted” for “consists”, “microtiter” for “96-well-microtiter”, “50-80 C. capitata” for “15-25 H. virescens”, “5” for “10”

[5] = system: Colorado potato beetle (Leptinotarsa decemlineata, adult); experiment: Colorado potato beetle test on treated eggplant foliage (B.3); details: test concentration 300 ppm, assessed 4 days after treatment
Protocol: B.3 Colorado potato beetle (Leptinotarsa decemlineata, adult)
The active compounds were formulated in cyclohexanone as a 10,0000 ppm solution supplied in 1.3 ml ABgene® tubes. These tubes were inserted into an automated electrostatic sprayer equipped with an atomizing nozzle and they served as stock solutions for which lower dilutions were made in 50% acetone:50% water (v/v). A nonionic surfactant (Kinetic®) was included in the solution at a volume of 0.01% (v/v). Eggplants were grown 2 plants to a pot and were selected for treatment at the 1st true leaf stage. Test solutions were sprayed onto the foliage by an automated electrostatic plant sprayer equipped with an atomizing spray nozzle. The plants were dried in the sprayer fume hood and then removed from the sprayer. The treated foliage was then cut and removed from the pot and placed in a 5-inch Petri dish lined with moistened filter paper. Five beetle larvae were introduced into each Petri dish and the dish was covered by a Petri dish lid. Petri dishes were maintained in a growth room at 25° C. and 20-40% relative humidity for 4 days, avoiding direct exposure to fluorescent light (24 hour photoperiod) to prevent trapping of heat inside the dishes. Mortality and reduced feeding were assessed 4 days after treatment, compared to untreated control plants.

CCNc1nc(-c2ccc(Cl)cc2)nc2cc(C(F)(F)F)ccc12 [I-99, [2-(4-Chloro-phenyl)-7-trifluoromethyl-quinazolin-4-yl]ethylamine]
mortality at 300 ppm [1]: ≥ 50% | mortality at 800 ppm [2]: ≥ 50% | mortality at 500 ppm [3]: ≥ 50% | mortality at 800 ppm [4]: ≥ 50%

CCNc1nc(-c2ccc(F)cc2)nc2cc(C(F)(F)F)ccc12 [I-201]
mortality in comparison with untreated controls [5]: at least 50%

CCNc1nc(-c2ccc(C(F)(F)F)cc2)nc2cc(C(F)(F)F)ccc12 [I-209, [2-(4-Trifluoromethylphenyl)-7-trifluoromethyl-quinazolin-4-yl]ethylamine]
mortality at 800 ppm [2]: ≥ 50% | mortality at 500 ppm [3]: ≥ 50% | mortality at 800 ppm [4]: ≥ 50%
